The numbers were not newly measured in patent US10519176B2, “Crystalline forms” (GRUNENTHAL GMBH, priority 2010, dated 2019), which cites them from elsewhere.

SMILES strings stand for the structures.

For data set [1] the following is noted: according to FDA SBA.
For data set [2] the following is noted: according to FDA SBA. The source holds these as a separate data set.
For data set [3] the following is noted: in vivo.

As to `O=P(O)(O)C(O)(Cn1ccnc1)P(=O)(O)O` [Zoledronic acid, (1-hydroxy-2-imidazol-1-yl-1-phosphono-ethyl)phosphonic acid], the “solubility in 0.1 N HCl solution” value (0.1 N HCl solution) is given as “sparingly soluble”. The “solubility in 0.1 N NaOH” value (0.1 N NaOH) is reported as “freely soluble”. The “solubility in various organic solvents” value (various organic solvents) was “practically insoluble”. Further, under “water”, the solubility in water result is reported as “sparingly soluble”. Further, the oral bioavailability result in data set [1] is on record as “approximately 1%”. Besides, the “permeability in the GI tract” value in data set [2] is on record as “poor permeability”. The “gastric and intestinal irritations” value in data set [3] was “severe gastric and intestinal irritations”.
